From paper PMC7942396, “Drug Repurposing Screen for Compounds Inhibiting the Cytopathic Effect of SARS-CoV-2” (Frontiers in Pharmacology, 2021)
Structures can show the parent of a compound that is named as a salt. Where two headings read alike, the source gives them in different places. *1 amine or outer side, *2 acyl side, *3 side chain or, on linkers, in order; H or OH if unused. Where a SMILES comes first, the peptide text is derived from it. Bridges are numbered along the chain shown (N, C = ends). [ ]: non-standard residue; d: D form. The star is where a group is joined. pTerphenylCO(4''-OnC5H11) = CCCCCOc1ccc(-c2ccc(-c3ccc(C(=O)*)cc3)cc2)cc1; Orn(4R-OH,5R-OH) = O=C([C@H](C[C@@H](O)[C@@H](O)N[*:3])N[*:1])[*:2]; hTyr(3S-OH,4S-OH) = N[C@H](C(=O)O)[C@H](O)[C@@H](O)c1ccc(O)cc1; Pro(3S-OH,4S-Me) = C[C@H]1CN[C@H](C(=O)O)[C@H]1O; Hyp = O=C(O)[C@@H]1C[C@@H](O)CN1

Columns and labels:
in vitro = conditions: African green monkey
[1] = test system: SARS-CoV-2 (USA_WA1/2020); test: microbe, parasite or virus in culture; type: cell-based
[2] = Severe acute respiratory syndrome coronavirus 2, Vero C1008, SARS-CoV-2 CPE assay, Vero E6 cells, read-out: CPE % Efficacy
[3] = Severe acute respiratory syndrome coronavirus 2, Vero C1008, SARS-CoV-2 CPE assay, Vero E6 cells, read-out: CPE EC50
[4] = Severe acute respiratory syndrome coronavirus 2, Vero C1008, SARS-CoV-2 CPE assay, Vero E6 cells, confirmed anti-SARS-CoV-2 compounds, read-out: CPE EC50
[5] = Severe acute respiratory syndrome coronavirus 2, Vero C1008, SARS-CoV-2 CPE assay, Vero E6 cells, efficacy, read-out: CPE % Efficacy
[6] = Severe acute respiratory syndrome coronavirus 2, Vero C1008, 72 h, read-out: CPE EC50
[7] = Severe acute respiratory syndrome coronavirus 2, Vero C1008, […], DMSO 0%, no-virus control 100%, hit confirmation, read-out: CPE % efficacy
[8] = Severe acute respiratory syndrome coronavirus 2, Vero C1008, read-out: CPE % Efficacy
[9] = Severe acute respiratory syndrome coronavirus 2, Vero C1008, read-out: CPE EC50

SMILES	CC50 (in vitro) [µM]	cytotoxicity (in vitro) [%]	cytotoxicity at 72 h (in vitro) [%]	EC50 [1, 4] [µM]	Emax [1, 5] [%]	other results
CC(C)[C@@]1(NC(=O)[C@@H]2C[C@@H]3c4cccc5[nH]cc(c45)C[C@H]3N(C)C2)O[C@@]2(O)[C@@H]3CCCN3C(=O)[C@H](Cc3ccccc3)N2C1=O [Dihydroergocristine]	15.8	11.5	–	–	–	Emax [1, 2]: 32%; EC50 [1, 3]: 14.1 µM
O=C(CCCN1CCC2(CC1)C(=O)NCN2c1ccccc1)c1ccc(F)cc1 [Spiperone]	–	–	30	4.47	61.2	CC50 at 72 h (in vitro): 3.55 µM
Cc1c(O)cccc1C(=O)N[C@@H](CSc1ccccc1)[C@H](O)CN1C[C@H]2CCCC[C@H]2C[C@H]1C(=O)NC(C)(C)C [Nelfinavir Mesylate]	12.6	96.9	–	3.55	106	–
CN1CCC(CN2c3ccccc3Sc3ccccc32)C1 (centres unmarked) [Methdilazine hydrochloride, reference compound]	–	< 30	–	–	–	EC50 [1, 6]: 10 µM; Emax [1, 7]: 86.4%
CN(C)CCCN1c2ccccc2Sc2ccc(Cl)cc21 [Chlorpromazine]	11.2	45.6	–	–	–	Emax [1, 2]: 102%; EC50 [1, 3]: 12.6 µM
Clc1ccc2c(c1)C(N1CCNCC1)=Nc1ccccc1O2 [Amoxapine]	–	13.9	–	–	34.1	–
CN1CCN(CCCN2c3ccccc3Sc3ccc(Cl)cc32)CC1 [Prochlorperazine dimaleate]	22.4	103	–	–	107	–
Oc1c(Cl)cc(Cl)c2cccnc12 [Chloroxine]	7.08	61.5	–	11.2	64.9	–
Cc1cccc(/C=N/Nc2cc(N3CCOCC3)nc(OCCc3ccccn3)n2)c1 [Apilimod, reference compound]	–	–	< 30	–	–	EC50 [1, 6]: 0.023 µM; Emax [1, 7]: 104%
CN1CC[C@@H](c2c(O)cc(O)c3c(=O)cc(-c4ccc(C(F)(F)F)cc4Cl)oc23)[C@@H]1CO [Voruciclib]	–	12.9	–	–	–	Emax [1, 2]: 39.2%; EC50 [1, 3]: 14.1 µM
CNCCCN1c2ccccc2CCc2ccccc21 [Desipramine hydrochloride]	5.01	9.2	–	11.2	43.7	–
CC[C@H](CC#N)OC(=O)N[C@@H](C)c1cccc(NC(=O)Nc2ccc(-c3cnco3)c(OC)c2)c1 [AVN944]	–	–	50.3	11.2	95.3	CC50 at 72 h (in vitro): 3.98 µM
CC1=C(c2ccc(O)cc2)[C@H](c2ccc(OCCN3CCCCC3)cc2)Oc2cc(O)ccc21 [Acolbifene]	12.6	54.1	–	5.62	56.1	–
O=c1[nH]c2ccccc2n1CCCN1CCN(C(c2ccccc2)c2ccccc2)CC1 [Oxatomide]	–	–	31.3	10	83.9	–
CCCCCOc1ccc(-c2ccc(-c3ccc(C(=O)N[C@H]4C[C@@H](O)[C@@H](O)NC(=O)[C@@H]5[C@@H](O)[C@@H](C)CN5C(=O)[C@H]([C@@H](C)O)NC(=O)[C@H]([C@H](O)[C@@H](O)c5ccc(O)cc5)NC(=O)[C@@H]5C[C@@H](O)CN5C(=O)[C@H]([C@@H](C)O)NC4=O)cc3)cc2)cc1 [Anidulafungin] ({pTerphenylCO(4''-OnC5H11)}-[Orn(4R-OH,5R-OH)]T[Hyp][hTyr(3S-OH,4S-OH)]T[Pro(3S-OH,4S-Me)]; lactam 1-C)	8.75	33.7	–	6.95	68.4	–
CNCc1ccc(-c2cc(-c3nc(-c4ccc(S(=O)(=O)C(C)C)cc4)cnc3N)on2)cc1 [Berzosertib, reference compound]	–	–	–	–	–	CC50 at 72 h (in vitro): 11.2 µM; Shape of concentration-response in the CPE assay ([1]; Figure 3): bell-shaped concentration-responses due to cytotoxicity; EC50 [1, 6]: 0.71 µM; Emax [1, 7]: 87.9%
CCCC[C@@H](C=O)NC(=O)[C@H](CC(C)C)NC(=O)OCc1ccccc1 [Calpeptin, reference compound]	–	< 30	–	–	–	EC50 [1, 6]: 0.5 µM; Emax [1, 7]: 112%
NC(=O)c1cccc2cn(-c3ccc([C@@H]4CCCNC4)cc3)nc12 [Niraparib]	15.8	24.3	–	–	–	Emax [1, 8]: 134%; EC50 [1, 9]: 11.2 µM
C=C1C(=O)[C@]23[C@H](O)[C@H]1CC[C@H]2[C@@]12CO[C@]3(O)[C@@H](O)[C@@H]1C(C)(C)CC[C@@H]2O [Oridonin]	–	27.4	–	–	–	Emax [1, 2]: 130%; EC50 [1, 3]: 11.2 µM
Clc1ccc2c(c1)N=C(N1CCNCC1)c1ccccc1N2 [N-Desmethylclozapine]	–	–	20.1	–	–	CC50 at 72 h (in vitro): 10 µM; Emax [1, 2]: 31.1%; EC50 [1, 3]: 14.1 µM
CC(C)COCC(CN(Cc1ccccc1)c1ccccc1)N1CCCC1 (centres unmarked) [Bepridil]	22.4	25.4	–	11.2	113	–
CN(C)CCC=C1c2ccccc2C=Cc2ccccc21 [Cyclobenzaprine hydrochloride]	–	23.9	–	–	–	Emax [1, 8]: 77.2%; EC50 ([1]; Severe acute respiratory syndrome coronavirus 2, Vero C1008, read-out: CPE EC50 (uM)): 12.6 µM
COc1ccc(-c2csc(NC(=O)[C@H]3CCCCN3S(=O)(=O)c3ccc(C)cc3)n2)cc1 [ML277]	–	0	–	10	45.4	–

SMILES	CC50 (in vitro) [µM]	cytotoxicity (in vitro) [%]	cytotoxicity at 72 h (in vitro) [%]	EC50 [1, 4] [µM]	Emax [1, 5] [%]	other results
CN1[C@@H]2CC[C@H]1C[C@@H](OC(c1ccccc1)c1ccccc1)C2 [Benztropine mesylate]	–	0	–	–	–	Emax [1, 2]: 59%
CC1CCCCN1CCCOC(=O)c1ccc(OC2CCCCC2)cc1 (centres unmarked) [Cyclomethycaine]	–	–	9.6	8.91	79.7	CC50 at 72 h (in vitro): 17.8 µM
COc1cc2nc(N3CCN(C(=O)C4COc5ccccc5O4)CC3)nc(N)c2cc1OC (centres unmarked) [Doxazosin mesylate]	–	0	–	–	–	Emax [1, 2]: 86.6%; EC50 [1, 3]: 14.1 µM
CC(/C=C/[C@@H]1C[C@]1(C)c1ccc2c(c1)C(C)(C)CCC2(C)C)=C\C(=O)O [AGN-194204]	–	–	36.8	11.2	57	–
CC#C[C@@H](CC(=O)O)c1ccc(OCc2cccc(-c3ccc(C(F)(F)F)cc3)c2)cc1 [AMG-837]	15.8	20.2	–	11.2	106	–
CCn1c(-c2nonc2N)nc2cnc(Oc3cccc(NC(=O)c4ccc(OCCN5CCOCC5)cc4)c3)cc21 [GSK-269962A]	2	56.8	–	7.94	41.8	–
Cn1c(NC[C@@H](N)Cc2ccccc2)nc(-c2ccncc2)c(-c2ccc3ccccc3c2)c1=O [AMG-548]	–	–	35.4	8.91	75	CC50 at 72 h (in vitro): 17.8 µM
NC(=O)c1cnc(N[C@@H]2CCCC[C@@H]2N)nc1Nc1cccc(-n2nccn2)c1 [PRT-062607]	–	24.9	–	11.2	66.4	–
Cc1ccc(NC(=O)c2ccc(CN3CCN(C)CC3)cc2)cc1Nc1nccc(-c2cccnc2)n1 [Imatinib, reference compound]	–	< 30	–	–	–	Emax [1, 7]: 119%
CN1CCC(c2cn(C)c3ccc(OS(=O)(=O)c4c(F)cccc4F)cc23)CC1 [SGS 518]	8.91	18.2	–	–	–	Emax [1, 2]: 101%; EC50 [1, 3]: 12.6 µM
CNCCCC1c2ccccc2C=Cc2ccccc21 [Protriptyline hydrochloride]	12.6	17.4	–	–	–	Emax [1, 8]: 58.2%; EC50 [1, 9]: 11.2 µM
CCOC(=O)[C@H](CCc1ccccc1)N[C@H]1CCc2ccccc2N(CC(=O)O)C1=O [Benazepril]	–	0	–	–	–	Emax [1, 2]: 108%; EC50 [1, 3]: 12.6 µM
COc1ccc2cc1Oc1ccc(cc1)C[C@H]1c3c(cc4c(c3Oc3cc5c(cc3OC)CCN(C)[C@@H]5C2)OCO4)CCN1C [Cepharanthine]	11.2	105	–	1.41	91.3	–
CC(CN1c2ccccc2Sc2ccc(S(=O)(=O)N(C)C)cc21)N(C)C (centres unmarked) [Fonazine]	–	–	0	11.2	36.6	–
Cc1cn(CCN2CCN(c3ccccc3-c3cc(C#N)cc(C(=O)NCCCN4CCCC4)c3)CC2)c2ccccc12 [LLY-507]	–	–	108	3.16	59.6	CC50 at 72 h (in vitro): 12.6 µM
CN1CCC(=C2c3ccccc3CCc3sccc32)CC1 [Pizotifen]	–	–	13.4	11.2	111	CC50 at 72 h (in vitro): 11.2 µM
COC(=O)[C@@]12OC[C@]34[C@H]([C@@H](O)[C@@H]1O)[C@@]1(C)CC(=O)C(O)=C(C)[C@@H]1C[C@H]3OC(=O)[C@H](OC(=O)/C=C(\C)C(C)C)[C@@H]24 [Bruceantin]	0.14	83.3	–	0.0319	42.5	–
CN(C)CCOC(C)(c1ccccc1)c1ccc(Cl)cc1 (centres unmarked) [Chlorphenoxamine]	–	–	36.9	6.31	75.3	CC50 at 72 h (in vitro): 11.2 µM
Fc1ccc2[nH]ccc2c1-c1nc(N2CCOCC2)c2sc(CN3CCN(CC4CC4)CC3)cc2n1 [PI-3065]	–	–	52.2	–	–	CC50 at 72 h (in vitro): 5.62 µM; Emax [1, 2]: 32.7%; EC50 [1, 3]: 14.1 µM
C=CC(=O)N[C@H]1CCOC[C@H]1Nc1ncc2cc(-c3c(Cl)c(OC)cc(OC)c3Cl)ccc2n1 [BLU-554]	–	–	0	–	–	Emax [1, 2]: 31.5%; EC50 [1, 3]: 12.6 µM
N#Cc1ccc2[nH]cc(CCCCN3CCN(c4ccc5oc(C(N)=O)cc5c4)CC3)c2c1 [Vilazodone Hydrochloride]	–	–	25.3	–	–	CC50 at 72 h (in vitro): 19.9 µM; Emax [1, 2]: 90.8%; EC50 [1, 3]: 12.6 µM
CCCCOc1cc(C(=O)NCCN(CC)CC)c2ccccc2n1 [Dibucaine]	–	–	0	–	–	Emax [1, 2]: 61.8%; EC50 [1, 3]: 12.6 µM
